Experiment [1] relates to HRV1A.
For experiment [2], the system named is HRV1A. Kind of experiment: microbe, parasite or virus in culture. As to conditions: Human rhinovirus sp., M-HeLa, 7 h; for activity at 0.03 µM: read-out: HRV1A infection (dsRNA), 0.03 µM; for activity at 0.1 µM: read-out: HRV1A infection (dsRNA), 0.10 µM; for activity at 0.31 µM: read-out: HRV1A infection (dsRNA), 0.31 µM; for activity at 0.93 µM: read-out: HRV1A infection (dsRNA), 0.93 µM; for activity at 2.78 µM: read-out: HRV1A infection (dsRNA), 2.78 µM; for activity at 8.33 µM: read-out: HRV1A infection (dsRNA), 8.33 µM; for activity at 25 µM: read-out: HRV1A infection (dsRNA), 25.00 µM.

In the case of `Nc1ccc(NC(=O)c2cc(Cl)ccc2O)c(Cl)c1` [TVB-1335], the “antiviral activity against HRV1A (structure-activity study, in words)” value (shortened to “antiviral activity against HRV1A”) in the experiment with HRV1A [1] is reported as “eliminated antiviral activity”. Besides, in the experiment with HRV1A [2], the activity at 0.03 µM was 109%, the activity at 0.1 µM was found to be 102%, the activity at 0.31 µM is 103% and the activity at 0.93 µM was determined as 105%. Moreover, in the experiment on HRV1A [2], the activity at 2.78 µM is 98%, the activity at 8.33 µM is 96% and the activity at 25 µM stood at 104%.

Regarding `O=C(Nc1ccc(NS(=O)(=O)c2ccccc2)cc1Cl)c1cc(Cl)ccc1O` [TVB-1336], the “antiviral activity against HRV1A” value with HRV1A [1] is reported as “eliminated antiviral activity”. In addition, in the experiment with HRV1A [2], the activity at 0.03 µM came to 102%, the activity at 0.1 µM amounted to 97%, the activity at 0.31 µM is 105% and the activity at 0.93 µM came to 105%. In addition, in the experiment on HRV1A [2], the activity at 2.78 µM came to 104%, the activity at 8.33 µM worked out at 105% and the activity at 25 µM amounted to 103%.

Regarding `COc1ccc(Br)cc1C(=O)Nc1cc([N+](=O)[O-])ccc1Cl` [TVB-1337], the “antiviral activity against HRV1A” value in the experiment with HRV1A [1] is recorded as “reduced antiviral efficacy”. For the same compound, in the experiment with HRV1A [2], the activity at 0.03 µM was found to be 112%, the activity at 0.1 µM is 104%, the activity at 0.31 µM was 107% and the activity at 0.93 µM is 104%. For the same compound, in the experiment with HRV1A [2], the activity at 2.78 µM turned out to be 105%, the activity at 8.33 µM was 111% and the activity at 25 µM worked out at 117%.

The values are drawn from paper PMC3486884 (PLoS Pathogens, 2012).
